# Source: article PMC5405701 (ChemMedChem, 2017)
# Test system: MCF-7 breast cancer cells
# Test: antiproliferative activity, MTT assay, MCF-7
# Conditions: Homo sapiens, MCF7, 72 h, read-out: MCF-7 Inhibition (%)
row,SMILES,inhibition at 10 µM [%]
1,"Cc1cc(-c2cc(Br)c(-c3cc(C)c(O)c(C)c3)[se]2)cc(C)c1O [Compound 6d, 3-Bromo-2,5-bis(4-hydroxy-3,5-dimethylphenyl)selenophene]",26.5
2,"Oc1ccc(-c2cc(Br)c(-c3ccc(O)c(Cl)c3)[se]2)cc1Cl [Compound 6e, 3-Bromo-2,5-bis(3-chloro-4-hydroxyphenyl)selenophene]",11.3
3,"Oc1cc(-c2cc(Br)c(-c3ccc(F)c(O)c3)[se]2)ccc1F [Compound 6f, 3-Bromo-2,5-bis(4-fluoro-5-hydroxyphenyl)selenophene]",0
4,"Oc1ccc(-c2cc(Br)c(-c3ccc(O)cc3F)[se]2)c(F)c1 [Compound 6g, 3-Bromo-2,5-bis(2-fluoro-4-hydroxyphenyl)selenophene]",8.1
5,"Oc1ccc(-c2cc(-c3ccc(O)cc3)c(-c3ccc(O)cc3)[se]2)cc1 [Compound 8a, 2,3,5-Tris(4-hydroxyphenyl)selenophene]",29.6
6,"Cc1cc(-c2cc(-c3ccc(O)c(C)c3)c(-c3ccc(O)c(C)c3)[se]2)ccc1O [Compound 8b, 2,3,5-Tris(4-hydroxy-3-methylphenyl)selenophene]",16.6
7,"Cc1cc(-c2cc(-c3cc(C)c(O)c(C)c3)c(-c3cc(C)c(O)c(C)c3)[se]2)cc(C)c1O [Compound 8c, 2,3,5-Tris(4-hydroxy-3,5-dimethylphenyl)selenophene]",75.3

# Test system: VERO cells
# Test: toxicity to normal cells, MTT assay, VERO
# Conditions: not given
row,SMILES,toxicity to healthy VERO cells
1,"Cc1cc(-c2cc(-c3cc(C)c(O)c(C)c3)c(-c3cc(C)c(O)c(C)c3)[se]2)cc(C)c1O [Compound 8c, 2,3,5-Tris(4-hydroxy-3,5-dimethylphenyl)selenophene]",nontoxic

# Target: ERα (Homo sapiens, UniProt P03372)
# Sequence (P03372 whole entry): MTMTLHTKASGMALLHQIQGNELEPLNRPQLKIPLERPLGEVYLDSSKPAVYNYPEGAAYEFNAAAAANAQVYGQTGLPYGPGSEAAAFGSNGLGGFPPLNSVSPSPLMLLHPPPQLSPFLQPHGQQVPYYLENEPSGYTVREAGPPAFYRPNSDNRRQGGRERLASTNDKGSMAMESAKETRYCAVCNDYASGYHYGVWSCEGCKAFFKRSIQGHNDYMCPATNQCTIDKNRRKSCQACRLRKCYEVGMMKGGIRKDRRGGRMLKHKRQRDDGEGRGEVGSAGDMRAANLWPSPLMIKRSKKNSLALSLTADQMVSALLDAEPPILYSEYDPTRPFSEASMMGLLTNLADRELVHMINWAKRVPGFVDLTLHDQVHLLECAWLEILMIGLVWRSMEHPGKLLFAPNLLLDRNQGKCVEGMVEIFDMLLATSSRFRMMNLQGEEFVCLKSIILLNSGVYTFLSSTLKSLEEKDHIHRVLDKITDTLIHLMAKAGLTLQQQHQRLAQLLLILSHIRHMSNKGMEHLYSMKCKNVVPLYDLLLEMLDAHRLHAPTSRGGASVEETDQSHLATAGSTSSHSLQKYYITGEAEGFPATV
# Test: cell-based
# Format: cell-based
# Conditions: not given
row,SMILES,EC50 [nM]
1,"Oc1cc(-c2cc(Br)c(-c3ccc(F)c(O)c3)[se]2)ccc1F [Compound 6f, 3-Bromo-2,5-bis(4-fluoro-5-hydroxyphenyl)selenophene]",120
2,"Cc1cc(-c2cc(-c3ccc(O)c(C)c3)c(-c3ccc(O)c(C)c3)[se]2)ccc1O [Compound 8b, 2,3,5-Tris(4-hydroxy-3-methylphenyl)selenophene]",320
3,"Cc1cc(-c2cc(-c3cc(C)c(O)c(C)c3)c(-c3cc(C)c(O)c(C)c3)[se]2)cc(C)c1O [Compound 8c, 2,3,5-Tris(4-hydroxy-3,5-dimethylphenyl)selenophene]",270

# Same assay, conditions: agonist mode
row,SMILES,"efficacy on ERα, times greater than that of estradiol [times]"
1,"Oc1cc(-c2cc(Br)c(-c3ccc(F)c(O)c3)[se]2)ccc1F [Compound 6f, 3-Bromo-2,5-bis(4-fluoro-5-hydroxyphenyl)selenophene]",2.2

# Same assay, conditions: maximal response as percentage of response to 10^−8 M E2, HEK293T
row,SMILES,Agonist Mode ERα Eff (%E2)
1,"Cc1cc(-c2cc(Br)c(-c3cc(C)c(O)c(C)c3)[se]2)cc(C)c1O [Compound 6d, 3-Bromo-2,5-bis(4-hydroxy-3,5-dimethylphenyl)selenophene]",16 ± 4
2,"Oc1ccc(-c2cc(Br)c(-c3ccc(O)c(Cl)c3)[se]2)cc1Cl [Compound 6e, 3-Bromo-2,5-bis(3-chloro-4-hydroxyphenyl)selenophene]",−23 ± 3
3,"Oc1cc(-c2cc(Br)c(-c3ccc(F)c(O)c3)[se]2)ccc1F [Compound 6f, 3-Bromo-2,5-bis(4-fluoro-5-hydroxyphenyl)selenophene]",226 ± 28
4,"Oc1ccc(-c2cc(Br)c(-c3ccc(O)cc3F)[se]2)c(F)c1 [Compound 6g, 3-Bromo-2,5-bis(2-fluoro-4-hydroxyphenyl)selenophene]",73 ± 9
5,"Oc1ccc(-c2cc(-c3ccc(O)cc3)c(-c3ccc(O)cc3)[se]2)cc1 [Compound 8a, 2,3,5-Tris(4-hydroxyphenyl)selenophene]",−4 ± 3
6,"Cc1cc(-c2cc(-c3ccc(O)c(C)c3)c(-c3ccc(O)c(C)c3)[se]2)ccc1O [Compound 8b, 2,3,5-Tris(4-hydroxy-3-methylphenyl)selenophene]",112 ± 29
7,"Cc1cc(-c2cc(-c3cc(C)c(O)c(C)c3)c(-c3cc(C)c(O)c(C)c3)[se]2)cc(C)c1O [Compound 8c, 2,3,5-Tris(4-hydroxy-3,5-dimethylphenyl)selenophene]",74 ± 4

# Same assay, conditions: reporter gene assay, HEK293T
row,SMILES,transcriptional activity profile on ERα
1,"Oc1cc(-c2cc(Br)c(-c3ccc(F)c(O)c3)[se]2)ccc1F [Compound 6f, 3-Bromo-2,5-bis(4-fluoro-5-hydroxyphenyl)selenophene]",superagonist
2,"Oc1ccc(-c2cc(-c3ccc(O)cc3)c(-c3ccc(O)cc3)[se]2)cc1 [Compound 8a, 2,3,5-Tris(4-hydroxyphenyl)selenophene]",antagonist
3,"Cc1cc(-c2cc(-c3ccc(O)c(C)c3)c(-c3ccc(O)c(C)c3)[se]2)ccc1O [Compound 8b, 2,3,5-Tris(4-hydroxy-3-methylphenyl)selenophene]",superagonists

# Target: ERβ (Homo sapiens, UniProt Q92731)
# Sequence (Q92731 whole entry): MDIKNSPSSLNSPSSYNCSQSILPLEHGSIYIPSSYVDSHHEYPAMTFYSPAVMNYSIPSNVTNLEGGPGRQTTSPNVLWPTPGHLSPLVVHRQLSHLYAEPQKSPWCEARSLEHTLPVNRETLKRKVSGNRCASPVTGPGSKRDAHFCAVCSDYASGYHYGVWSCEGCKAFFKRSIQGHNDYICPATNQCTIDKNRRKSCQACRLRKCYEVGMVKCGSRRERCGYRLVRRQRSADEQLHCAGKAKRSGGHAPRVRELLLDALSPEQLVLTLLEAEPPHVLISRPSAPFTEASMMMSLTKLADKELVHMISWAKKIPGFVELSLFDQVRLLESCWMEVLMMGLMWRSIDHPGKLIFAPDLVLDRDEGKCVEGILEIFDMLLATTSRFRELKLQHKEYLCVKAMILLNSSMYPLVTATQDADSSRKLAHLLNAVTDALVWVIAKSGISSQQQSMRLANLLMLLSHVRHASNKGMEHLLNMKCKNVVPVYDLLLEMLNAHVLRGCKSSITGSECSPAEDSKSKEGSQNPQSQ
# Test: cell-based
# Format: cell-based
# Conditions: not given
row,SMILES,EC50 [nM]
1,"Oc1cc(-c2cc(Br)c(-c3ccc(F)c(O)c3)[se]2)ccc1F [Compound 6f, 3-Bromo-2,5-bis(4-fluoro-5-hydroxyphenyl)selenophene]",300
2,"Cc1cc(-c2cc(-c3ccc(O)c(C)c3)c(-c3ccc(O)c(C)c3)[se]2)ccc1O [Compound 8b, 2,3,5-Tris(4-hydroxy-3-methylphenyl)selenophene]",33
3,"Cc1cc(-c2cc(-c3cc(C)c(O)c(C)c3)c(-c3cc(C)c(O)c(C)c3)[se]2)cc(C)c1O [Compound 8c, 2,3,5-Tris(4-hydroxy-3,5-dimethylphenyl)selenophene]",17

# Same assay, conditions: HEK-293T, 24 h, read-out: Agonist Mode ERβ Eff (%E2)
row,SMILES,Emax [%]
1,"Cc1cc(-c2cc(Br)c(-c3cc(C)c(O)c(C)c3)[se]2)cc(C)c1O [Compound 6d, 3-Bromo-2,5-bis(4-hydroxy-3,5-dimethylphenyl)selenophene]",15 ± 6
2,"Oc1ccc(-c2cc(Br)c(-c3ccc(O)c(Cl)c3)[se]2)cc1Cl [Compound 6e, 3-Bromo-2,5-bis(3-chloro-4-hydroxyphenyl)selenophene]",27 ± 2
3,"Oc1cc(-c2cc(Br)c(-c3ccc(F)c(O)c3)[se]2)ccc1F [Compound 6f, 3-Bromo-2,5-bis(4-fluoro-5-hydroxyphenyl)selenophene]",31 ± 7
4,"Oc1ccc(-c2cc(Br)c(-c3ccc(O)cc3F)[se]2)c(F)c1 [Compound 6g, 3-Bromo-2,5-bis(2-fluoro-4-hydroxyphenyl)selenophene]",50 ± 3
5,"Oc1ccc(-c2cc(-c3ccc(O)cc3)c(-c3ccc(O)cc3)[se]2)cc1 [Compound 8a, 2,3,5-Tris(4-hydroxyphenyl)selenophene]",12 ± 3
6,"Cc1cc(-c2cc(-c3ccc(O)c(C)c3)c(-c3ccc(O)c(C)c3)[se]2)ccc1O [Compound 8b, 2,3,5-Tris(4-hydroxy-3-methylphenyl)selenophene]",77 ± 8
7,"Cc1cc(-c2cc(-c3cc(C)c(O)c(C)c3)c(-c3cc(C)c(O)c(C)c3)[se]2)cc(C)c1O [Compound 8c, 2,3,5-Tris(4-hydroxy-3,5-dimethylphenyl)selenophene]",69 ± 5

# Same assay, conditions: reporter gene assay, HEK293T
row,SMILES,transcriptional activity profile on ERβ
1,"Oc1ccc(-c2cc(-c3ccc(O)cc3)c(-c3ccc(O)cc3)[se]2)cc1 [Compound 8a, 2,3,5-Tris(4-hydroxyphenyl)selenophene]",antagonist

# Target: human ERβ ligand binding domain (LBD) (Homo sapiens, UniProt Q92731)
# Sequence (Q92731 264-498 limits assumed): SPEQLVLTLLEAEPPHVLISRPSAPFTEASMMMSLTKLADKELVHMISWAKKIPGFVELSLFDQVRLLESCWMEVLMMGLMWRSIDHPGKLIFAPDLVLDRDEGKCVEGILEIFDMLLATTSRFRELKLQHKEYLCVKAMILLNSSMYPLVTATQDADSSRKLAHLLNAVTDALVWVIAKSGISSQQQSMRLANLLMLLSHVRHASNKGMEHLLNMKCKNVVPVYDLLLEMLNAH
# Test: competitive fluorometric
# Conditions: ratio of RBA ERβ to RBA ERα
row,SMILES,β/α
1,"Cc1cc(-c2cc(Br)c(-c3cc(C)c(O)c(C)c3)[se]2)cc(C)c1O [Compound 6d, 3-Bromo-2,5-bis(4-hydroxy-3,5-dimethylphenyl)selenophene]",0.43
2,"Oc1ccc(-c2cc(Br)c(-c3ccc(O)c(Cl)c3)[se]2)cc1Cl [Compound 6e, 3-Bromo-2,5-bis(3-chloro-4-hydroxyphenyl)selenophene]",0.25
3,"Oc1cc(-c2cc(Br)c(-c3ccc(F)c(O)c3)[se]2)ccc1F [Compound 6f, 3-Bromo-2,5-bis(4-fluoro-5-hydroxyphenyl)selenophene]",0.28
4,"Oc1ccc(-c2cc(Br)c(-c3ccc(O)cc3F)[se]2)c(F)c1 [Compound 6g, 3-Bromo-2,5-bis(2-fluoro-4-hydroxyphenyl)selenophene]",1.30
5,"Oc1ccc(-c2cc(-c3ccc(O)cc3)c(-c3ccc(O)cc3)[se]2)cc1 [Compound 8a, 2,3,5-Tris(4-hydroxyphenyl)selenophene]",1.15
6,"Cc1cc(-c2cc(-c3ccc(O)c(C)c3)c(-c3ccc(O)c(C)c3)[se]2)ccc1O [Compound 8b, 2,3,5-Tris(4-hydroxy-3-methylphenyl)selenophene]",9.92
7,"Cc1cc(-c2cc(-c3cc(C)c(O)c(C)c3)c(-c3cc(C)c(O)c(C)c3)[se]2)cc(C)c1O [Compound 8c, 2,3,5-Tris(4-hydroxy-3,5-dimethylphenyl)selenophene]",0.55
